The test relates to P. falciparum 3D7 growth, pLDH absorbance. As to the kind of experiment: P. falciparum 3D7 growth inhibition, dose response, strain 3D7 (AID 2305).

Drawing on PubChem BioAssay AID2305 (GlaxoSmithKline (GSK), 2010), this text covers IC50 for 88 compounds.

The term IC50 denotes the point on the concentration scale where inhibition reaches its midpoint. A low value points to greater potency in that assay.

`COc1ccc(NC(=O)[C@H](Cc2ccccc2)Nc2cc(C)nc(NCCOc3ccccc3)n2)cc1` gave an IC50 of 1070 nM.
To `COc1ccc2nccc([C@@H](O)CN3CCC(NC(=O)/C=C/c4cccc(NC(C)=O)c4)CC3)c2c1` belongs 960 nM.
As for `CC(C)(C)c1nn(-c2ccc(Cl)cc2)c2[nH]c(=O)c(CNCc3ccc4c(c3)OCO4)cc12`, the IC50 is 810 nM.
For `CCNc1cc(C(=O)N[C@@H](Cc2ccccc2)[C@H](O)CN[C@H]2C[C@@H]3CC[C@H]2C3)cc(N2CCCCS2(=O)=O)c1` the value was 240 nM; for `Nc1ncc(-c2ccsc2)c2ccc(-c3cc(NCc4ccccc4)ncn3)cc12`, 860 nM.
To `Cc1ccccc1C1CCN(C2CCC(NC(=O)c3cc4cc(C(C)C)ccc4[nH]3)CC2)CC1` (stereo not drawn) belongs 690 nM.
Compound `COCCSc1ccc(CC(C)NCC(O)c2cccc(Cl)c2)cc1` (stereo not drawn) returned an IC50 of 760 nM.
Regarding `CCCCC([C@@H](Cc1ccc2ccccc2c1)C(=O)N[C@H](C(=O)NC)C(C)(C)C)N(O)C=O` (stereo partly drawn), the IC50 was found to be 140 nM.
For `CCOC(=O)NCC(=O)Nc1cccc(-c2cccc(-c3nc4ccc(C(F)(F)F)cc4[nH]3)c2)c1` the value was 630 nM; for `COc1ccc(-c2nc(NC(=O)CS(=O)(=O)c3ccc(OC)cc3)sc2C)cc1`, 300 nM.
`COc1ccc2nc3cc(Cl)ccc3c(NCCCCN3CCNCC3)c2c1` yielded an IC50 of 180 nM.
For the compound `CNS(=O)(=O)c1ccc(NC(=O)c2cc(-c3cccnc3)nc3ccc(Br)cc23)cc1`, the IC50 stood at 910 nM.
For `Nc1nccc2ccc(Oc3ccncc3)cc12` the value was 480 nM; for `Cc1cccc2[nH]c(-c3ccc(-c4cccc(NC(=O)Nc5ccsc5)c4)s3)nc12`, 540 nM.
For `Nc1c2c(nc3ccccc13)C(=Cc1ccc(O)cc1)CCC2` the value was 180 nM.
As to `O=C(N[C@@H](CC1CCCCC1)C(=O)NC1CC1)c1ccc(O)c(-c2cccc(C(F)(F)F)c2)c1`, the IC50 is 770 nM.
`C[C@@H]1CN(c2cnn(Cc3cccc(NC(=O)Nc4ccc(F)cc4[N+](=O)[O-])c3)c(=O)c2Cl)C[C@H](C)N1` returned an IC50 of 870 nM.
For `Cc1cc(=O)[nH]c(/N=C(/N)NOCCCc2ccccc2)n1` the value was 760 nM; for `Cc1cccc2[nH]c(-c3ccc(-c4ccc(NC(=O)C(C)CN(C)C)cc4)cc3)nc12` (stereo not drawn), 680 nM; for `COc1ccc(-c2ccc(NC(=O)c3ccc(C#N)cc3)cc2)cc1CNC(C)C`, 530 nM.
To `CNC(=C[N+](=O)[O-])NCCSCc1cc(C)c(CN(C)C)s1` belongs 350 nM.
For `Cc1cc(NC(=O)c2ccco2)ccc1OC1CCN(Cc2ccc(F)cc2)CC1` the value was 590 nM.
As to `Cc1ccc2sc(N3CCN(C(=O)c4ccc([N+](=O)[O-])o4)CC3)nc2c1C`, the IC50 worked out at 940 nM.
On to `O=C(N[C@H]1CCN(Cc2ccc(OCCN3CCNCC3)c(Cl)c2)C1)c1ccc(Cl)c(Cl)c1`, for which the IC50 was 1060 nM.
Regarding `COc1cc(CNC2Cc3ccccc3C2)ccc1Oc1ccc2nc[nH]c2c1`, the IC50 came out at 950 nM.
`O=C(Nc1cccc(-c2cccc(-c3nc4ccccc4[nH]3)c2)c1)Nc1ccc(Cl)c(Cl)c1`: the concentration for half-maximal inhibition (IC50) stood at 130 nM.
`COc1cc(NC(=O)NC(CCN2CCC3(CCc4ccccc43)CC2)c2ccc(Cl)c(Cl)c2)cc(OC)c1OC` (stereo not drawn) showed an IC50 of 680 nM.
For `CN(CCCN(C)c1cc(NC(=O)c2cccc(F)c2)ccn1)Cc1cccc(O)c1` the value was 1920 nM; for `CCOc1c(CNCCCNc2nc3ccccc3[nH]2)cc(Br)cc1OC`, 560 nM.
`c1ccc2c(NCCCCCCCNc3ccnc4ccccc34)ccnc2c1` yielded an IC50 of 170 nM.
`c1ccc2[nH]c(-c3ccc(-c4ccc(CN5CCC(N6CCCCC6)CC5)cc4)s3)nc2c1` yielded an IC50 of 150 nM.
To `COc1ccc(C(O)CNC(C)CCc2ccc(F)cc2)cc1C(F)(F)F` (stereo not drawn) belongs 750 nM; to `COc1ccc2c(NN=Cc3ccc(Cl)cc3)ccnc2c1`, 870 nM; to `O=S(=O)(NCCN1CCCC1)c1ccc(-c2cccc(CNCc3ccccc3)c2)s1`, 810 nM.
For `O=C(/C=C/c1ccc(Cl)c(Cl)c1)NCCCCCN1CCCC(C(=O)Nc2ccc(Cl)cc2)C1` (stereo not drawn) the value was 850 nM.
In the case of `O=C(Cc1ccc(-n2cnnn2)cc1)N(Cc1cncn1Cc1cccc(C(F)(F)F)c1)CC1CC1`, the IC50 was 960 nM.
The compound `CC(C)CNCc1ccc(-c2cccc(CNC3CCN(Cc4ccccc4)CC3)c2)cc1` gave an IC50 of 240 nM.
For the compound `N#Cc1ccc(N2CCN(Cc3cccc(-c4ccc(-c5nc6ccc(C(F)(F)F)cc6[nH]5)s4)c3)CC2)nc1`, the IC50 turned out to be 1040 nM.
For `COc1ccc(C(O)CNC(C)CCc2ccccc2)cc1C(F)(F)F` (stereo not drawn) the value was 70 nM; for `N[C@@H](Cc1cc(I)c(Oc2ccc(O)c(C(=O)O)c2)c(I)c1)C(=O)O`, 990 nM; for `CCOc1cc(N)c2nc3ccc([N+](=O)[O-])cc3cc2c1`, 150 nM.
Turning to `CCCc1cc(Cc2cnc(N)nc2N)c2cccnc2c1OC`, the IC50 was 670 nM.
To `COc1cc(CNCCCNc2cc(=O)c3ccccc3[nH]2)c2c(c1)C(C)CN2C(=O)OC(C)(C)C` (stereo not drawn) belongs 730 nM; to `Cc1c2c(nn1-c1ccccc1)C(c1ccccc1)N(c1ccccc1)C2=O` (stereo not drawn), 150 nM; to `Cc1cnc(CS(=O)c2nc3ccc(C(F)(F)F)cc3[nH]2)cc1OCc1ccccc1` (stereo not drawn), 740 nM.
For `C=CCc1ccc(C[C@H](NC(=O)OC(C)(C)C)C(=O)OC)cc1` the value was 810 nM; for `c1ccc(CN2CCC(NCc3ccc(-c4cccc(CNC5CCCC5)c4)cc3)CC2)cc1`, 340 nM.
As to `O=C(N[C@@H](Cc1ccccc1)C(=O)NCCN1CCCC1)c1ccc(O)c(-c2ccc(Cl)c(Cl)c2)c1`, the IC50 worked out at 800 nM.
To `CCn1c(Cc2ccccc2)nnc1SCC(=O)N1c2ccccc2Sc2ccccc21` belongs 590 nM.
`CC[C@@H]([C@@H](Cc1cc2ccccc2s1)C(=O)N[C@@H](CCCCNC(=O)OCc1ccccc1)C(=O)Nc1ccccn1)N(O)C=O` registered an IC50 of 230 nM.
`N#Cc1cnc2cc(-c3cnc(CNCCN4CCOCC4)s3)ccc2c1Nc1ccc(Oc2ccccc2)cc1` returned an IC50 of 730 nM.
For `Oc1cccc(Nc2ccnc3cc(-c4ccccn4)ccc23)c1` the value was 740 nM; for `Oc1ccccc1CNCc1ccc(-c2cnc(N3CCCC(c4ccccc4)C3)nc2)cc1` (stereo not drawn), 690 nM; for `C=CCOc1ccc(CNC2CCN(Cc3ccccc3)CC2)cc1Br`, 1420 nM.
For `Cc1[nH]c2ccc(C#N)cc2c(=O)c1Br` the value was 640 nM.
To `COc1ccc(-c2ccc(NC(=O)c3cccc(Cl)c3)c(F)c2)cc1CNC(C)C` belongs 890 nM; to `COc1ccc(O)c(C(=O)c2cc(C(=O)NC3CCCCC3)c(=O)n(C3CCCCC3)c2)c1`, 660 nM.
Take `Cc1nc2ccccn2c1C1(O)C(=O)Nc2c(Cl)cc(Cl)cc21` (stereo not drawn): the IC50 is 1590 nM.
For `CCN(CCO)Cc1ccc(-c2ccc(NS(=O)(=O)c3cccc4cccnc34)cc2)cc1` the value was 990 nM; for `NCc1cccc(-c2ccc(CNC3CCN(Cc4ccccc4)CC3)cc2)c1`, 1700 nM; for `COc1cc2nc(-c3ccccc3)nc(N3CCN(C(=O)c4ccco4)CC3)c2cc1OC`, 1410 nM.
To `CCOc1cc2ncnc(Nc3ccc(OCc4ccccc4Br)c(OC)c3)c2cc1OCC` belongs 470 nM; to `O=C(Nc1ccc(Cn2nc(Cl)c(N3CCNCC3)cc2=O)cc1)Nc1ccc(-c2ccccc2)cc1`, 750 nM.
As to `CCCOc1ccccc1C(=O)Nc1nonc1-c1ccc(OCC)c(OCC)c1`, the IC50 came out at 710 nM.
Regarding `CCOC(=O)c1cc(C(=O)NCCCCN2CCC(c3ccc(CC)cc3OCC)CC2)ccc1-c1ccc(C(F)(F)F)cc1`, the IC50 is 610 nM.
For the compound `O=C(NCC1CCN(Cc2cccc(F)c2)C1)c1cc(-c2cccc(C(F)(F)F)c2)cs1` (stereo not drawn), the IC50 is 990 nM.
For `O=C(Nc1cccc(F)c1)N1CCC(NS(=O)(=O)c2ccc(Br)cc2)CC1` the value was 980 nM; for `CN1CCN(c2cc3c(cc2Cl)CCN3C(=O)Cc2ccc(Cl)c(NC(=O)Nc3cccc(C#N)c3)c2)CC1`, 640 nM; for `CCNC(=O)CCc1cccc(Br)c1`, 530 nM.
In the case of `CCc1sc(-c2cc(Cl)ccc2OC)nc1C(=O)NCCN1CCCCC1`, the IC50 was 940 nM.
To `CN(C)CCOc1ccc(N2CCN(CCCCNC(=O)c3ccc(/C=C/c4cc(Cl)cc(Cl)c4)cc3)CC2)cc1` belongs 1000 nM; to `CCN(CCNC(=O)Nc1cc(C(F)(F)F)cc(C(F)(F)F)c1)c1cccc(C)c1`, 800 nM; to `CC(=O)Nc1ccc(S(=O)(=O)Nc2ccc(Nc3nc(C)cc(N(C)C)n3)cc2)cc1`, 1160 nM.
To `CC(CN1CCN(C)CC1)C(=O)Nc1ccc(-c2ccc(-c3nc4ccc(F)cc4[nH]3)cc2)cc1` (stereo not drawn) belongs 790 nM.
To `Oc1ccc(CC2CCCN(c3nc(NCCCOc4ccccc4-c4ccccc4)nc(N4CCNCC4)n3)C2)cc1` (stereo not drawn) belongs 920 nM.
In turn, `Cc1ccc(C(=O)c2oc3ccc4c(C)cc(=O)oc4c3c2C)cc1` returned an IC50 of 1030 nM.
For `CC(=O)Nc1cccc(NC(=O)CSc2ccc(-c3nc4ccccc4[nH]3)cn2)c1` the value was 560 nM; for `CCCN(CCC)CCCNc1ccc(C(=O)Nc2ccc(C(C)C)cc2)cc1[N+](=O)[O-]`, 710 nM.
For `CC(Cc1ccc(OCc2ccccc2)cc1)NCC(O)c1cccc(Cl)c1` (stereo not drawn) the value was 550 nM.
`CCN(CCCN1CCCCC1)c1cc(C)nc(Nc2ccc(OC)cc2)n1` had an IC50 of 620 nM.
To `CC[C@H]1CN2CC[C@H]1C[C@H]2[C@@H](O)c1cc(OCCCN(C)C)nc2ccc(OC)cc12` belongs 130 nM; to `COc1ccc(CCN(C)CCCN2CCC(NC(=O)c3cccc4c(=O)c5ccccc5[nH]c34)CC2)cc1OC`, 690 nM; to `Cc1cc(C(F)(F)F)n2nc(C(=O)N(C)Cc3cncn3Cc3ccc(F)cc3)cc2n1`, 830 nM.
In turn, `Nc1nc(N)c2c(ccc3nn(S(=O)(=O)N4CCCC4)cc32)n1` displayed an IC50 of 100 nM.
For `CN(CCCCCNC(=O)/C=C/c1ccc(Cl)c(Cl)c1)CCCCc1c[nH]c2ccccc12` the value was 1080 nM.
For `O=C(Nc1cccc(-c2cccc(-c3nc4ccc(C(F)(F)F)cc4[nH]3)c2)c1)c1csnn1` the value was 240 nM; for `CCc1ccc(O)c(-c2cc(C(=O)Nc3ccc(OC)c(Cl)c3)[nH]n2)c1`, 870 nM.
For `N#Cc1ccc(C2CCN(CC[C@H](N)Cc3ccc(Cl)s3)CC2)cc1` the value was 1260 nM.
